From patent US9481885B2, “Methods and compositions related to miR-21 and miR-29a, exosome inhibition, and cancer metastasis” (Ohio State Innovation Foundation, priority 2011, dated 2016)

Tests used:
[1] = system: human peripheral blood mononuclear cells (PBMCs); test: ELISA for TNF-α and IL-6 on human PBMCs; type: cell-based; conditions: human PBMCs from two healthy donors, Dotap formulations
Method: To investigate whether miRNA-induced activation of TLRs also occurs in human cells, an NF-κB reporter assay was performed in HEK-293 cells. NF-κB, a transcription factor modulating the expression of several cytokine genes, is activated by several TLRs, including the only ssRNA-binding human TLRs, TLR7 and TLR8. Therefore, we treated HEK-293 cells expressing human TLR7 or TLR8 (hereafter, TLR7- and TLR8-HEK-293 cells, respectively) with Dotap alone or with Dotap formulations of miR-16, -21, -29a, or -147 and performed an NF-κB reporter assay. As positive controls Gardiquimod and ssRNA40 were used, specific agonists of TLR7 and TLR8, respectively. […] To confirm this conclusion, transfected were TLR8-HEK-293 cells with a plasmid encoding a dominant negative form of TLR8 (TLR8DN) and treated these cells with the miRNAs of interest. In TLR8DN cells, the activation of NF-κB by miR-21 and miR-29a was abolished (FIG. 3F). Also, incubated were TLR7- and TLR8-expressing human peripheral blood mononuclear cells (PBMCs) from two healthy donors with Dotap alone or Dotap formulations of miR-16, -21, -27b, -29a, -147, -574-5p, or ssRNA40 and an ELISA was performed for TNF-α and IL-6. With the exception of PBMCs treated with Dotap alone and with Dotap-miR-16, each of the other miRNAs and ssRNA40 induced the production of TNF-α and IL-6 (FIGS. 3G-3J). […]

[2] = system: peritoneal macrophages; test: ELISA for TNF-α and IL-6 on peritoneal macrophages from WT and TLR7−/− mice; type: cell-based, mouse; conditions: Dotap formulations of miRNA
Method: Experiments were performed to determine whether the miRNA-TLR interaction is functional, and assessed whether the miRNAs of interest induce the secretion of cytokines such as TNF-α and IL-6, whose production is increased by TLR activation. We isolated peritoneal macrophages from WT and TLR7^−/− B6 mice. Cells were treated with Dotap alone or with Dotap formulations of miR-16, -21, -29a, and -147, and an ELISA for TNF-α and IL-6 was performed. In the functional assays, included also were miR-147 and -574-5p, because they have a mature viral-derived sequence that induces cytokine production through the activation of TLR8 and TLR7, similar to that of RNA33 (FIG. 14A). […] We also treated spleen cells from WT and TLR7^−/− mice with the same miRNAs and assessed expression of CD69, an early activation marker of cells which has a role in inflammation and proliferation and which also is activated by TLR3. Polyinosinic:polycytidylic acid [poly (I:C)], a known agonist of TLR3, served as positive control.
For all experiments, cells were treated with 15 μg of HPLC-purified synthetic miRNAs (Integrated DNA Technologies) complexed with Dotap Liposomal Transfection Reagent (Roche) as previously described.
Macrophages derived from the peritoneal cavity were isolated from WT and TLR7^−/− age- and sex-matched mice.
PBMC were isolated from heparinized blood of healthy donors by Ficoll-Paque (Pharmacia) centrifugation (500×g) following the manufacturer's instructions and were plated immediately for stimulation. Human PBMCs or murine peritoneal macrophages (300,000 cells) were stimulated with synthetic miRNAs for 24 h; then ELISAs for TNF-α and IL-6 were performed on the conditioned media using Multi-Analyte ELISArray Kits (SABiosciences) following the manufacturer's instructions.

[3] = peritoneal macrophages of TLR7−/− B6 mice
[4] = peritoneal macrophages of WT B6 mice

For “miR-147: synthetic mature miRNA (SEQ ID NO: 3), sequence similar to RNA33, Dotap formulation (GUGUGUGGAAAUGCUUCUGC; DOTAP formulation, further chemistry not given here)”, the “production of IL-6” value [1] was “induced”, the “production of TNF-α” value [1] was “induced” and the IL-6 production [2, 3] was “not”. The TNF-α production [2, 3] was “not”, the IL-6 production [2, 4] was “increased” and the TNF-α production [2, 4] was “increased”.
